Assay results from the NIST ThermoML archive (doi:10.1016/j.jct.2014.09.020).
± gives the expanded uncertainty stated by the source.

Tests used:
[1] = xn = mol fraction of the nth substance listed; settings: Liquid, x1 = 1; for speed of sound: Frequency=4 MHz, Single path-length method; for mass density: Vibrating tube method
[2] = Liquid; for speed of sound: Frequency=4 MHz, Single path-length method; for mass density: Vibrating tube method

CCCCCCCCCCCCCCCC [hexadecane] + c1ccc2c(c1)CCCC2
[1]
Settings | mass density, 100 kPa [kg/m3] | speed of sound, 100 kPa [m/s] | speed of sound, 5000 kPa [m/s] | speed of sound, 10000 kPa [m/s] | speed of sound, 15000 kPa [m/s] | speed of sound, 20000 kPa [m/s] | speed of sound, 25000 kPa [m/s]
313.15 K | 759.55 ± 1 | 1283 ± 2 | 1311 ± 2 | 1340 ± 2 | 1366 ± 2 | 1391 ± 2 | 1416 ± 2
323.15 K | 752.64 ± 1 | 1248 ± 2 | 1278 ± 2 | 1307 ± 2 | 1335 ± 2 | 1361 ± 2 | 1387 ± 2
333.15 K | 745.73 ± 1 | 1212 ± 2 | 1242 ± 2 | 1273 ± 2 | 1301 ± 2 | 1328 ± 2 | 1354 ± 2

CCCCCCCCCC [decane]
[2]
Settings | mass density, 100 kPa [kg/m3] | speed of sound, 100 kPa [m/s] | speed of sound, 5000 kPa [m/s] | speed of sound, 10000 kPa [m/s] | speed of sound, 15000 kPa [m/s] | speed of sound, 20000 kPa [m/s] | speed of sound, 25000 kPa [m/s]
313.15 K | 714.87 ± 1 | 1177 ± 2 | 1209 ± 2 | 1243 ± 2 | 1274 ± 2 | 1303 ± 2 | 1327 ± 2
323.15 K | 707.2 ± 1 | 1139 ± 2 | 1174 ± 2 | 1207 ± 2 | 1238 ± 2 | 1269 ± 2 | 1296 ± 2
333.15 K | 699.47 ± 1 | 1099 ± 2 | 1134 ± 2 | 1171 ± 2 | 1204 ± 2 | 1234 ± 2 | 1264 ± 2

c1ccc2c(c1)CCCC2 [1,2,3,4-tetrahydronaphthalene]
[2]
Settings | mass density, 100 kPa [kg/m3] | speed of sound, 100 kPa [m/s] | speed of sound, 5000 kPa [m/s] | speed of sound, 10000 kPa [m/s] | speed of sound, 15000 kPa [m/s] | speed of sound, 20000 kPa [m/s] | speed of sound, 25000 kPa [m/s]
313.15 K | 952.93 ± 1.2 | 1413 ± 2 | 1434 ± 3 | 1455 ± 3 | 1475 ± 3 | 1495 ± 3 | 1513 ± 3
323.15 K | 944.99 ± 1.2 | 1374 ± 2 | 1397 ± 3 | 1419 ± 3 | 1439 ± 3 | 1459 ± 3 | 1480 ± 3
333.15 K | 937.04 ± 1.2 | 1335 ± 2 | 1359 ± 3 | 1383 ± 3 | 1402 ± 3 | 1425 ± 3 | 1445 ± 3

CCCCCCCCCC [decane] + c1ccc2c(c1)CCCC2
[1]
Settings | mass density, 100 kPa [kg/m3] | speed of sound, 100 kPa [m/s] | speed of sound, 5000 kPa [m/s] | speed of sound, 10000 kPa [m/s] | speed of sound, 15000 kPa [m/s] | speed of sound, 20000 kPa [m/s] | speed of sound, 25000 kPa [m/s]
313.15 K | 714.87 ± 1 | 1177 ± 2 | 1209 ± 2 | 1243 ± 2 | 1274 ± 2 | 1303 ± 2 | 1327 ± 2
323.15 K | 707.2 ± 1 | 1139 ± 2 | 1174 ± 2 | 1207 ± 2 | 1238 ± 2 | 1269 ± 2 | 1296 ± 2
333.15 K | 699.47 ± 1 | 1099 ± 2 | 1134 ± 2 | 1171 ± 2 | 1204 ± 2 | 1234 ± 2 | 1264 ± 2

CCCCCCCCCCCCCCCC [hexadecane]
[2]
Settings | mass density, 100 kPa [kg/m3] | speed of sound, 100 kPa [m/s] | speed of sound, 5000 kPa [m/s] | speed of sound, 10000 kPa [m/s] | speed of sound, 15000 kPa [m/s] | speed of sound, 20000 kPa [m/s] | speed of sound, 25000 kPa [m/s]
313.15 K | 759.55 ± 1 | 1283 ± 2 | 1311 ± 2 | 1340 ± 2 | 1366 ± 2 | 1391 ± 2 | 1416 ± 2
323.15 K | 752.64 ± 1 | 1248 ± 2 | 1278 ± 2 | 1307 ± 2 | 1335 ± 2 | 1361 ± 2 | 1387 ± 2
333.15 K | 745.73 ± 1 | 1212 ± 2 | 1242 ± 2 | 1273 ± 2 | 1301 ± 2 | 1328 ± 2 | 1354 ± 2
